Test results from patent publication US6642365B1, “Anti-(retro)viral conjugates of saccharides and acetamidino or guanidino compounds” (Yeda Research and Development Co. Ltd., priority 2001, dated 2003).
pIC50, pKd, pKi: −log10 of the molar value.

Experiments:
[1] = system: TAR RNA; experiment: Gel-shift binding to TAR RNA; parameters: species or system HIV-1
Procedure: (§1) The model Tat peptide (R52: […]) was prepared by the Weizmann Institute Chemical Services and was purified by reverse phase HPLC (C-18) (Lapidot et al., 1995). […] The RNA was transcriptionally labeled with α-^32P UTP, purified on a 12% polyacrylamide/7M urea gel (19:1 acrylamide:bis-acrylamide) and was eluted from the gel by 0.5M ammonium acetate, 10 mM magnesium acetate, 1 mM EDTA and 0.1% SDS. The sample was subjected to phenol extraction and the RNA was precipitated from 70% ethanol. Purified RNA was dissolved in diethyl pyrocarbonate-treated water (DEPC water), its concentration was determined by UV absorption at 260 nm and the specific radioactivity was determined by scintillation counting on a LS 1701 “Bruker” counter.
To study the affinity of the test compounds to TAR, gel-shift and gel-shift inhibition experiments were performed. The binding reaction mixtures (20 μl) contained ^32P-labeled TAR (18-44) RNA oligonucleotide (3-6 nM) and Tat R52 peptide (35-75 nM) in a binding buffer (10 mM Tris-HCl pH 7.5, 70 mM NaCl, 0.2 mM EDTA and 5% glycerol). The reaction mixtures were incubated for 10 minutes on ice and resolved by electrophoresis on a 10% non-denaturing polyacrylamide gel (40:1 acrylamide:bis-acrylamide) at 200V, for 3 h at 4° C. Gels were dried and visualized by autoradiography. Quantitations were obtained by optical densitometry of films. Alternatively, results were visualized by exposing the wet gels to Fuji phosphoimager plates, which were read on a “Storm 820” (Molecular Dynamics) phosphoimager. […]
Binding of aminoglycoside-arginine conjugates (AAC) to TAR RNA was measured by adding varying concentrations of each conjugate to reaction mixtures (20 μl) which contained 12 nM ^32P-labeled TAR RNA. The reactions were analyzed as described above.

[2] = system: TAR RNA; experiment: L-arginine-Amberlite affinity column elution of TAR RNA; type: binding, HIV-1; details: concentration that elutes 50% of TAR RNA from L-arginine-Amberlite affinity column
Procedure: as §1
The L-arginine-Amberlite resin was prepared as follows: Carboxyl groups of Amberlite IRC-50 resin were covalently modified with ethanolamine using 1-(3-dimethylaminopropyl) 3-ethylcarbodiimide, a water-soluble coupler. The hydroxy ethyleneamide resin obtained was washed and dried, and L-arginine (12-16 μmols per ml of resin) was coupled to the hydroxy groups of the resin via an isourea moiety using a standard cyanogen bromide protocol. The final concentration of arginine residues was 12-16 μmol per ml of resin. The swollen L-arginino-Amberlite resin (200 μl) was packed into a plastic mini-column and equilibrated with buffer containing 40 mM Tris HCl, pH 7.5, 250 mM NaCl, 0.5 mM EDTA and 5 mM MgCl2 (buffer A). Approximately 1 ng of ^32P-UTP labeled TAR RNA in buffer A was loaded on the column. The column was eluted 3 to 5 times with 400 μl portions of buffer A, until no radioactivity was detected in the eluent. […] Each of the test compounds was dissolved in buffer A and passed through the column in 300 μl portions. Radioactivity of the eluates was determined by scintillation counting on a LS 1701 “Bruker” counter. CE50 values, the concentrations of inhibitors eluting 50% of the radioactive material from the column, were determined.

[3] = target: Tat-TAR interaction; experiment: Gel-shift inhibition of Tat R52 peptide binding to TAR RNA; parameters: species or system HIV-1; details: for pKi: CI50 normalized to the conditions of Tao and Frankel, 1992, read-out: apparent Ki; for pIC50: TAR RNA 6 nM, 60 nM Tat R52, read-out: CI50 (the source's name)
Procedure: The model Tat peptide (R52: […]) was prepared by the Weizmann Institute Chemical Services and was purified by reverse phase HPLC (C-18) (Lapidot et al., 1995). A 31-nt TAR RNA fragment (5′-GGCCAGAUCUGAGCCUGGGAGCUCUCUGGCC-3′) containing the sequence 18-44 of the HIV LTR (Aboul-Ela et al., 1995) was transcribed in vitro by T7 RNA polymerase (Promega) from a synthetic single strand DNA template containing the 17 base double-stranded T7 promoter (both DNA oligonucleotides were prepared by the Weizmann Institute Chemical Services). The RNA was transcriptionally labeled with α-^32P UTP, purified on a 12% polyacrylamide/7M urea gel (19:1 acrylamide:bis-acrylamide) and was eluted from the gel by 0.5M ammonium acetate, 10 mM magnesium acetate, 1 mM EDTA and 0.1% SDS. The sample was subjected to phenol extraction and the RNA was precipitated from 70% ethanol. Purified RNA was dissolved in diethyl pyrocarbonate-treated water (DEPC water), its concentration was determined by UV absorption at 260 nm and the specific radioactivity was determined by scintillation counting on a LS 1701 “Bruker” counter.
To study the affinity of the test compounds to TAR, gel-shift and gel-shift inhibition experiments were performed. The binding reaction mixtures (20 μl) contained ^32P-labeled TAR (18-44) RNA oligonucleotide (3-6 nM) and Tat R52 peptide (35-75 nM) in a binding buffer (10 mM Tris-HCl pH 7.5, 70 mM NaCl, 0.2 mM EDTA and 5% glycerol). The reaction mixtures were incubated for 10 minutes on ice and resolved by electrophoresis on a 10% non-denaturing polyacrylamide gel (40:1 acrylamide:bis-acrylamide) at 200V, for 3 h at 4° C. Gels were dried and visualized by autoradiography. Quantitations were obtained by optical densitometry of films. Alternatively, results were visualized by exposing the wet gels to Fuji phosphoimager plates, which were read on a “Storm 820” (Molecular Dynamics) phosphoimager. Different concentrations of TAR RNA (6,12 and 20 nM) were titrated with various concentrations of Tat R52 in the binding reactions.
Binding inhibition by the monosaccharide derivatives was measured by adding several concentrations of each compound to reaction mixtures containing 60 nM Tat 52 and 6 nM ^32P TAR, attaining 100% binding of Tat TAR in the absence of inhibitors (Lapidot et al., 1995).

[4] = system: TAR RNA; experiment: RNase A footprinting of TAR RNA; type: binding, HIV-1
Procedure: In a typical experiment 10 μl of 5 mM cacodylate buffer pH 6.5, containing 25 mM KCl and 50-100 ng 5′ ^32P-labeled TAR RNA (approximately 0.5-1 μM) were incubated with 200 pM RNase A (Sigma) at room temperature for 10 minutes in the presence of Tat R52 and the conjugates of the invention at various concentrations. In the competition experiments, the mixture was supplemented with 0.5 μg yeast tRNA (Sigma). After the incubation, 10 μl of formamide/bromphenol blue loading buffer was added to the samples. The samples were heated to 80° C. for 2 min and were resolved by electrophoresis on 40 cm×0.8 mm 20% polyacrylamide denaturing gel (7M urea) for 3 hours at 55° C. The results were visualized by a phosphoimager as described above and quantitated using ImageQuant software.
TAR RNA and RNase A concentrations were established by co-titration. To produce a “single-hit” kinetics conditions, 1 μM TAR versus 200 pM RNase A were selected. Tat R52 and AAC concentrations were determined by titration. […] RNase A cleaved TAR RNA in an uneven manner (FIG. 4A., lane 2). The most susceptible regions for cleavage were the single-stranded loop, nucleotides U31-G34 as well as C24 and U25 of the bulge. Strong cleavage was also observed at G21-G41 and A20-U42 pairs (lower stem). Binding of R52 (2-4 μM) caused a weakening of the bands in the upper stem region, (G26-C39, A27-C38, as well as U40) (FIG. 4A., lanes 3, 4). At 4 μM R52, the cleavage at G34 (loop) was enhanced, as well as a certain enhancement of bands A20, G21, U23 and U25 was observed. Remarkably, the band corresponding to the R52-TAR complex still was observed on the gels even after electrophoresis under strongly denaturing conditions. In the presence of R4K (10-20 μM), the upper stem (G26-C29), the lower stem and the bulge (G21-U23, partially C24 and U25) were protected as well as C38, C39 and U40. Cleavage at C19 and A20 of the lower stem and C30, G33 and G34 of the loop was enhanced by 10 μM R4K, whereas with 20 μM R4K the protection of C30, G34 and A20-G21 was observed (FIG. 4A., lanes 5, 6). […] Cleavages at C19-A20 in the lower stem as well as at G30 and G34 in the loop were observed (FIG. 4A., lanes 7, 8). In the presence of GB4K (20 μM) no significant protection was observed.

[5] = system: equine infectious anemia virus (EIAV); experiment: Antiviral activity in EIAV-infected ED fibroblasts; type: cell-based; details: 100-250 μM
Procedure: Both equine dermal fibroblasts (ED) and Equine Infectious Anemia Virus (EIAV), Wyoming isolate (Malmquist et al., 1973) were gifts from Profs. A. Yaniv and A. Gazit, from the Sackler Medical School of the Tel-Aviv University, Israel. ED cells were plated on plastic 6-well tissue culture plates (Nunclone) at density of […] per well in 2 ml of DMEM/10% FCS (fetal calf serum). The medium was removed after 12-20 hours and the cells were inoculated for 2 hours with 0.5 ml DMEM/10% FCS containing 5×10^6 pfu (plaque forming units) of EIAV and 10 μg/ml of polybrene (hexadimetrine bromide, Sigma) (Carpenter and Chesebro, 1989). Following the incubation, another 2.5 ml of DMEM/10% FCS was added to each well. […] Every […], 1.2 ml samples of the medium were collected and replaced with same amount of medium, containing radioactive uridine and the tested. The samples were clarified from cell debris by spinning at 12000 rpm for 5 minutes on the Eppendorf centrifuge. Viral particles from the clarified supernatants were collected by ultracentrifugation at 75000 rpm, 4° C. on the Beckman TL 100 centrifuge using TLA 100.2 rotor (Cheevers et al., 1977). The supernatants were carefully discarded and the pellet was resuspended in 200 μl of 1% SDS/5% Tritone X-100, mixed with 1 ml Ultima Gold scintillation liquid (Packard) and counted on LS 1701 Bruker scintillation counter. Typical duration of the experiment was 15 days; EIAV growth curves in the presence of various concentrations of the conjugates in the medium were obtained. Development of the cytopathic effect (cpe) in the infected ED cells was monitored by light microscopy.
Equine infectious anemia virus (EIAV) of Wyoming strain is adapted to grow in equine dermal fibroblasts (ED), without damaging them with a titer of 1 μfu per cell (Malmquist virus). […] In the absence of inhibitors, EIAV proliferated in the ED cells reaching a plato 9-12 days after infection (FIG. 8). […] Development of cpe started 10-12 days after infection, reaching a maximum on days 15-17, followed by rapid cell death and exfoliation from the plastic bottom of the well.

[6] = system: HIV-1 NL4-3; experiment: Virus-binding assay, p24 antigen bound to MT-4 cells; type: cell-based; details: 1 hour at 37° C.; dose dependent
Procedure: MT4 cells (5×10^5) were incubated with supernatant containing 1×10^5 pg of p24 antigen of wild type HIV-1 in the presence of different concentrations of the test compound. One hour after infection, cells were washed 3 times with PBS and p24 antigen bound to the cells was determined by a commercial ELISA test (Coulter, Spain).

Compound | CE50 [2] [mM] | pKi [3] | pIC50 [3] | further results
CN[C@@H]1[C@@H](O)[C@@H](O[C@@H]2[C@@H](O)[C@H](O[C@H]3O[C@H](CNC(=O)[C@@H](N)CCCNC(=N)N)CC[C@H]3NC(=O)[C@@H](N)CCCNC(=N)N)[C@@H](NC(=O)[C@@H](N)CCCNC(=N)N)C[C@H]2NC(=O)[C@@H](N)CCCNC(=N)N)OC[C@]1(C)O [R4GC1a, Tetraargininamido-gentamicin (C1a) conjugate] | – | – | – | concentration from which a complex with TAR RNA is formed ([1]; 20 nM TAR RNA): ≥ 200 nM; CD50 ([1]; 50% binding, TAR RNA 20 nM): 200 nM; pKd ([1]; CD50 normalized to the reported conditions (Calnan et al., 1991 b), read-out: apparent Kd): ~7.70
CO[C@@H]1O[C@H](CNC(C)=N)C(O)[C@H](O)[C@@H]1O (stereo partly drawn) [compound 11, Methyl 6-deoxy-6-(N-acetamidino)-α-D-mannopyranoside] | 730 | ~3.00 | 1.96 | –
CO[C@H]1O[C@H](CN)[C@@H](O)[C@H](O)[C@@H]1O [compound 7, Methyl 6-deoxy-6-amino-α-D-mannopyranoside] | >1500 | – | 1.25 | –
COC1OC(CNC(=O)C(N)CCCNC(=N)N)C(O)C(O)C1O [RMMP, Methyl 6-deoxy6-(N-L-argininamido)-α-D-mannopyranoside] | 310 | ~3.80 | 2.74 | –
CO[C@H]1O[C@H](CNC(=N)N)[C@@H](O)[C@H](O)[C@@H]1O [compound 10, Methyl 6-deoxy-6-guanidino-α-D-mannopyranoside] | 650 | ~3.00 | 2.05 | –
CO[C@H]1O[C@H](CC#N)[C@@H](O)[C@H](O)[C@@H]1O [compound 4, Methyl 6-deoxy-6-cyano-α-D-mannopyranoside] | 1200 | – | 1.34 | –
CO[C@@H]1O[C@H](C/C(N)=N/O)C(O)[C@H](O)[C@@H]1O (stereo partly drawn) [compound 9, Methyl 6-deoxy-α-D-mannoheptopyranuronic acid amidoxime] | >1500 | – | < 1.30 | –
N=C(N)NCCCC(=O)NC[C@H]1O[C@H](O[C@H]2[C@H](O)[C@@H](O[C@H]3O[C@H](CO)[C@@H](O)[C@H](NC(=O)CCCNC(=N)N)[C@H]3O)[C@H](NC(=O)CCCNC(=N)N)C[C@@H]2NC(=O)CCCNC(=N)N)[C@H](O)[C@@H](O)[C@@H]1O [GB4K, Tetra-γ-(N-guanidino)butyramido-kanamycin A conjugate] | – | – | – | binding to TAR RNA in gel-shift experiments ([1]; up to 50 μM): did not exhibit binding; binding to TAR RNA in protection experiments ([4]; at 40 μM): did not exhibit binding; TAR RNA binding, overall assessment ([4]; footprinting studies): very weak TAR RNA binder; effect on the viral growth [5]: did not show any effect
Dextran sulfate [reference compound] | – | – | – | binding of HIV-1 NL4-3 to MT-4 cells [6]: active
